How the values were obtained:
Format in all cases: cell-based
[1] = tested on: interferon-stimulated responsive elements (ISRE); experiment: Activation of ISRE promoter elements by conditioned media from PBMC (HEK-ISREluc); details: compound concentration applied to PBMCs overnight; supernatant on HEK-ISREluc cells 24 hours
Experimental: The potential of compounds to induce IFN-I was also evaluated by measuring the activation of interferon-stimulated responsive elements (ISRE) by conditioned media from PBMC. The ISRE element of sequence GAAACTGAAACT (SEQ ID NO: 1) is highly responsive to the STAT1-STAT2-IRF9 transcription factor, activated upon binding of IFN-I to their receptor IFNAR (Clontech, PT3372-5W). The plasmid pISRE-Luc from Clontech (ref. 631913) contains 5 copies of this ISRE element, followed by the firefly luciferase ORF. A HEK293 cell line stably transfected with pISRE-Luc (HEK-ISREluc) was established to profile the conditioned PBMC cell culture media.
Briefly, PBMCs were prepared from buffy coats of at least two donors using a standard Ficoll centrifugation protocol. Isolated PBMCs were resuspended in RPMI medium supplemented with 10% human AB serum and 2×10^5 cells/well were dispensed into 384-well plates containing compounds (70 μL total volume). After overnight incubation, 10 μL of supernatant was transferred to 384-well plates containing 5×10^3 HEK-ISREluc cells/well in 30 μL (plated the day before). Following 24 hours of incubation, activation of the ISRE elements was measured by assaying luciferase activity using 40 μL/well Steady Lite Plus substrate (Perkin Elmer) and measured with ViewLux ultraHTS microplate imager (Perkin Elmer). […]

[2] = target: T1, human TLR7 (Homo sapiens, UniProt Q9NYK1); experiment: TLR7 cellular reporter assay (HEK293, NFκB-luc); details: lowest effective concentration; HEK293 transiently transfected with TLR7 and NFκB-luc; 6 hours incubation
T1 construct: expressed in transfected cells; host or cells: HEK293
T1 sequence (Q9NYK1 27-1049): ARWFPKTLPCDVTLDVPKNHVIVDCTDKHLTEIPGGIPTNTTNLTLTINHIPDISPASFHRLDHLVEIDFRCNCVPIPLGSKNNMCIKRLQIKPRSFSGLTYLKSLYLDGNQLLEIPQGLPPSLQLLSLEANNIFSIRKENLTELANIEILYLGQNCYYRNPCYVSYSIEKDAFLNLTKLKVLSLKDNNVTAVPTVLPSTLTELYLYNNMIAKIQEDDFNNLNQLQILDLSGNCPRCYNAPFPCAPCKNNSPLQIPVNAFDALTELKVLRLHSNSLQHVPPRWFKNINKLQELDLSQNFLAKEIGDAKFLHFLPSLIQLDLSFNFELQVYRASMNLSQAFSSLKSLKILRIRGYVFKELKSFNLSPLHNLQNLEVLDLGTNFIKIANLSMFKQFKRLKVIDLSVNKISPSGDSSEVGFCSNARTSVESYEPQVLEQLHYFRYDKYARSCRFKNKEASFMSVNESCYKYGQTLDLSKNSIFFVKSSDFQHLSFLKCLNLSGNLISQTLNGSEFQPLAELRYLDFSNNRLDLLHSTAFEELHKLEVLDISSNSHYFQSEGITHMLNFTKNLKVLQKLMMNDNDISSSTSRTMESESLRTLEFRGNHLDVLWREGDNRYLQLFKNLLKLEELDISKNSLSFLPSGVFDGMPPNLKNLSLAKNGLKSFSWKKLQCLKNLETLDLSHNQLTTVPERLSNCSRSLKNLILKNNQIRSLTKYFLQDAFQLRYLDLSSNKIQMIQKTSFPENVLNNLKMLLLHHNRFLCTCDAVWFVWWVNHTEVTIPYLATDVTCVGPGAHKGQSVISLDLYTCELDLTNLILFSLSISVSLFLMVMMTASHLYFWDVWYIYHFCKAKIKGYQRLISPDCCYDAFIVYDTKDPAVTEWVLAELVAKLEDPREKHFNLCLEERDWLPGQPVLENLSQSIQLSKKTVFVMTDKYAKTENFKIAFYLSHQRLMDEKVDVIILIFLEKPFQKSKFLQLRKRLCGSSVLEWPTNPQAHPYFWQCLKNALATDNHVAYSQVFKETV
Experimental: (§1) The ability of compounds to activate human TLR7 and/or TLR8 was assessed in a cellular reporter assay using HEK293 cells transiently transfected with a TLR7 or TLR8 expression vector and NFκB-luc reporter construct.
(§2) Briefly, HEK293 cells were grown in culture medium (DMEM supplemented with 10% FCS and 2 mM Glutamine). For transfection of cells in 15 cm dishes, cells were detached with Trypsin-EDTA, transfected with a mix of CMV-TLR7 or TLR8 plasmid (1700 ng), NFκB-luc plasmid (850 ng) and a transfection reagent and incubated for 48 h at 37° C. in a humidified 5% CO2 atmosphere. Transfected cells were then washed in PBS, detached with Trypsin-EDTA and resuspended in medium to a density of 1.25×10^5 cells/mL. Forty microliters of cells were then dispensed into each well in 384-well plates, where 200 nL of compound in 100% DMSO was already present. Following 6 hours incubation at 37° C., 5% CO2, the luciferase activity was determined by adding 15 μL of Steady Lite Plus substrate (Perkin Elmer) to each well and readout performed on a ViewLux ultraHTS microplate imager (Perkin Elmer). Dose response curves were generated from measurements performed in quadruplicates. Lowest effective concentrations (LEC) values, defined as the concentration that induces an effect which is at least two fold above the standard deviation of the assay, were determined for each compound.

[3] = target: T2, human TLR8 (Homo sapiens, UniProt Q9NR97); experiment: TLR8 cellular reporter assay (HEK293, NFκB-luc); details: lowest effective concentration; HEK293 transiently transfected with TLR8 and NFκB-luc; 6 hours incubation
T2 construct: expressed in transfected cells; host or cells: HEK293
T2 sequence (Q9NR97 27-1041): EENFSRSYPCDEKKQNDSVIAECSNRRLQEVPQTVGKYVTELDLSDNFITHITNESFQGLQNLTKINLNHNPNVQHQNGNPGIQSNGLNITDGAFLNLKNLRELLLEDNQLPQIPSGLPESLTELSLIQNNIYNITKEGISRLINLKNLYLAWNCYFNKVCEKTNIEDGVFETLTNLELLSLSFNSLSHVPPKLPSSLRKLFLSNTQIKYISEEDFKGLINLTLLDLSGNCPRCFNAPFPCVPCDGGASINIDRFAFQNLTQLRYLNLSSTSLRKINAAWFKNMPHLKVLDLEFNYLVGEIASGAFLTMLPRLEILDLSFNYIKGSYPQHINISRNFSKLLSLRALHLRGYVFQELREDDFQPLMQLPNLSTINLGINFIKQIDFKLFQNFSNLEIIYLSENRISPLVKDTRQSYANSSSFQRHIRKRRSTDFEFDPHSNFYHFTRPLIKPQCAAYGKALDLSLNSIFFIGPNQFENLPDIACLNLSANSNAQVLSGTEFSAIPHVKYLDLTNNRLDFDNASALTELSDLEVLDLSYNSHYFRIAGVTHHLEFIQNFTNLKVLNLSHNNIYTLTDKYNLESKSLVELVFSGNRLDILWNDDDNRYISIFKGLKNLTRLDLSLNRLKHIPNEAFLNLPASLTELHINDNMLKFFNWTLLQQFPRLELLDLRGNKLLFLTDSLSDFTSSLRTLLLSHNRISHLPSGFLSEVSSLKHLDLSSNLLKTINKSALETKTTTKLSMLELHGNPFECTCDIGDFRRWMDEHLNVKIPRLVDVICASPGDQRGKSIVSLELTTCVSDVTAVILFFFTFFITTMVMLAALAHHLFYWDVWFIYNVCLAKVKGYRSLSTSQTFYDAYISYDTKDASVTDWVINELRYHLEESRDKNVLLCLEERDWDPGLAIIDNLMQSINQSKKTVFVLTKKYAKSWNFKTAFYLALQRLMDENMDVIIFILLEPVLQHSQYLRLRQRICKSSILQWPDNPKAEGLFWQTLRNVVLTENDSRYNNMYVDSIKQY
Experimental: as §1, §2

Compound | HEK-ISRE luc (LEC) [1] | Human TLR 7 (LEC) [2] | Human TLR 8 (LEC) [3]
CCCC[C@@H](CC[S+](C)[O-])Nc1nc(N)ncc1OC (some centres unmarked) [Compound 2] | 4.8 µM | 1.4 µM | 9.2 µM
CCCC[C@@H](CCS(C)(=O)=O)Nc1nc(N)ncc1OC [Compound 1] | 0.65 µM | 2.0 µM | 1.7 µM
CCCC[C@@H](CCSC)Nc1nc(N)ncc1OC [E] |  | 3.9 µM | 10 µM

Source: patent US10647684B2, “2-aminopyrimidine derivatives for the treatment of viral infections” (Janssen Sciences Ireland Unlimited Company, priority 2013, dated 2020)
